Article PMC7181660, “A novel specific PERK activator reduces toxicity and extends survival in Huntington's disease models” (Scientific Reports, 2020)
Read-outs that look alike come from different tables or passages of the source.

Experiments:
Experiment in all cases: biochemical
Format in all cases: biochemical
[1] = molecular target: panel of 391 kinases (Homo sapiens, UniProt Q96PY6); conditions: NEK1, MK-28 1 µM, ATP 1 µM
[2] = molecular target: panel of 391 kinases (Homo sapiens, UniProt Q08881); conditions: ITK, MK-28 1 µM, ATP 1 µM
[3] = molecular target: panel of 391 kinases (Homo sapiens, UniProt Q8NG66); conditions: NEK11, MK-28 1 µM, ATP 1 µM
[4] = molecular target: panel of 391 kinases (Homo sapiens, UniProt Q13237); conditions: PKG2/PRKG2, MK-28 1 µM, ATP 1 µM
[5] = molecular target: panel of 391 kinases (Homo sapiens, UniProt Q15303); conditions: ERBB4/HER4, MK-28 1 µM, ATP 1 µM
[6] = molecular target: panel of 391 kinases (Homo sapiens, UniProt P19525); conditions: kinase EIF2AK2, compound at 1 µM, single dose in duplicates, 1 µM ATP
[7] = molecular target: panel of 391 kinases (Homo sapiens, UniProt Q05513); conditions: PKCzeta, MK-28 1 µM, ATP 1 µM
[8] = molecular target: panel of 391 kinases (Homo sapiens, UniProt P57059); conditions: SIK1, MK-28 1 µM, ATP 1 µM
[9] = molecular target: panel of 391 kinases (Homo sapiens, UniProt Q9NWZ3); conditions: IRAK4, MK-28 1 µM, ATP 1 µM
[10] = molecular target: panel of 391 kinases (Homo sapiens, UniProt Q00536); conditions: CDK16/cyclin Y (PCTAIRE), MK-28 1 µM, ATP 1 µM
[11] = molecular target: panel of 391 kinases (Homo sapiens, UniProt P48729); conditions: CK1a1, MK-28 1 µM, ATP 1 µM
[12] = molecular target: panel of 391 kinases (Homo sapiens, UniProt Q14012); conditions: CAMK1a, MK-28 1 µM, ATP 1 µM
[13] = molecular target: panel of 391 kinases (Homo sapiens, UniProt P16591); conditions: FER, MK-28 1 µM, ATP 1 µM
[14] = molecular target: panel of 391 kinases (Homo sapiens, UniProt Q32MK0); conditions: MYLK3, MK-28 1 µM, ATP 1 µM
[15] = molecular target: panel of 391 kinases (Homo sapiens, UniProt Q9NYY3); conditions: PLK2, MK-28 1 µM, ATP 1 µM
[16] = molecular target: panel of 391 kinases (Homo sapiens, UniProt Q16816); conditions: PHKg1, MK-28 1 µM, ATP 1 µM
[17] = molecular target: panel of 391 kinases (Homo sapiens, UniProt Q14289); conditions: PYK2, MK-28 1 µM, ATP 1 µM
[18] = molecular target: panel of 391 kinases (Homo sapiens, UniProt P78368); conditions: CK1g2, MK-28 1 µM, ATP 1 µM
[19] = molecular target: panel of 391 kinases (Homo sapiens, UniProt Q7L7X3); conditions: TAOK1, MK-28 1 µM, ATP 1 µM
[20] = molecular target: panel of 391 kinases (Homo sapiens, UniProt P15735); conditions: PHKg2, MK-28 1 µM, ATP 1 µM
[21] = molecular target: panel of 391 kinases (Homo sapiens, UniProt P50750); conditions: MK-28 1 µM, ATP 1 µM; for remaining activity at 1 µM: read-out: % Enzyme Activity (relative to DMSO controls)
[22] = molecular target: panel of 391 kinases (Homo sapiens, UniProt O75914); conditions: PAK3, MK-28 1 µM, ATP 1 µM
[23] = molecular target: panel of 391 kinases (Homo sapiens, UniProt Q13163); conditions: MEK5, MK-28 1 µM, ATP 1 µM
[24] = molecular target: panel of 391 kinases (Homo sapiens, UniProt P11309); conditions: PIM1, MK-28 1 µM, ATP 1 µM
[25] = molecular target: panel of 391 kinases (Homo sapiens, UniProt P53667); conditions: LIMK1, MK-28 1 µM, ATP 1 µM
[26] = molecular target: panel of 391 kinases (Homo sapiens, UniProt Q13554); conditions: CAMK2b, MK-28 1 µM, ATP 1 µM
[27] = read-out: % Enzyme Activity (relative to DMSO controls)

SMILES: CN(/N=C\c1ccc(O)c(O)c1)c1nc(-c2ccccc2)cc(-c2ccccc2)n1 [MK-28]
- % Enzyme Activity (relative to DMSO controls) [1]: 92.29%
- remaining activity at 1 µM [1, 27]: 94.7%
- % Enzyme Activity (relative to DMSO controls) [2]: 92.03%
- remaining activity at 1 µM [2, 27]: 92.4%
- % Enzyme Activity (relative to DMSO controls) [3]: 90.54%
- remaining activity at 1 µM [3, 27]: 93.3%
- % Enzyme Activity (relative to DMSO controls) [4]: 85.92%
- remaining activity at 1 µM [4, 27]: 86%
- % Enzyme Activity (relative to DMSO controls) [5]: 97.84%
- remaining activity at 1 µM [5, 27]: 99.3%
- % Enzyme Activity (relative to DMSO controls) [6]: 97.81%
- remaining activity at 1 µM [6, 27]: 99%
- % Enzyme Activity (relative to DMSO controls) [7]: 100.19%
- remaining activity at 1 µM [7, 27]: 100%
- % Enzyme Activity (relative to DMSO controls) [8]: 83.98%
- remaining activity at 1 µM [8, 27]: 85%
- % Enzyme Activity (relative to DMSO controls) [9]: 124.00%
- remaining activity at 1 µM [9, 27]: 129%
- % Enzyme Activity (relative to DMSO controls) [10]: 113.27%
- remaining activity at 1 µM [10, 27]: 119%
- % Enzyme Activity (relative to DMSO controls) [11]: 98.77%
- remaining activity at 1 µM [11, 27]: 99.5%
- % Enzyme Activity (relative to DMSO controls) [12]: 77.40%
- remaining activity at 1 µM [12, 27]: 77.7%
- % Enzyme Activity (relative to DMSO controls) [13]: 101.21%
- remaining activity at 1 µM [13, 27]: 102%
- % Enzyme Activity (relative to DMSO controls) [14]: 104.33%
- remaining activity at 1 µM [14, 27]: 106%
- % Enzyme Activity (relative to DMSO controls) [15]: 97.72%
- remaining activity at 1 µM [15, 27]: 98.5%
- % Enzyme Activity (relative to DMSO controls) [16]: 89.19%
- remaining activity at 1 µM [16, 27]: 90.7%
- % Enzyme Activity (relative to DMSO controls) [17]: 101.51%
- remaining activity at 1 µM [17, 27]: 103%
- % Enzyme Activity (relative to DMSO controls) [18]: 83.33%
- remaining activity at 1 µM [18, 27]: 87%
- % Enzyme Activity (relative to DMSO controls) [19]: 103.55%
- remaining activity at 1 µM [19, 27]: 105%
- % Enzyme Activity (relative to DMSO controls) [20]: 95.93%
- remaining activity at 1 µM [20, 27]: 96.2%
- % Enzyme Activity (relative to DMSO controls) ([21]; CDK9/cyclin K): 95.35%
- remaining activity at 1 µM ([21]; CDK9/cyclin K): 96.1%
- % Enzyme Activity (relative to DMSO controls) ([21]; CDK9/cyclin T1): 83.98%
- remaining activity at 1 µM ([21]; CDK9/cyclin T1): 84.2%
- % Enzyme Activity (relative to DMSO controls) ([21]; CDK9/cyclin T2): 97.55%
- remaining activity at 1 µM ([21]; CDK9/cyclin T2): 103%
- % Enzyme Activity (relative to DMSO controls) [22]: 116.60%
- remaining activity at 1 µM [22, 27]: 117%
- % Enzyme Activity (relative to DMSO controls) [23]: 100.81%
- remaining activity at 1 µM [23, 27]: 105%
- % Enzyme Activity (relative to DMSO controls) [24]: 100.72%
- remaining activity at 1 µM [24, 27]: 101%
- % Enzyme Activity (relative to DMSO controls) [25]: 93.55%
- remaining activity at 1 µM [25, 27]: 101%
- % Enzyme Activity (relative to DMSO controls) [26]: 93.40%
- remaining activity at 1 µM [26, 27]: 98%
